Reference: patent US12016858B2, “Methods for the treatment of abnormal involuntary movement disorders” (AUSPEX PHARMACEUTICALS, INC., priority 2015, dated 2024)

Test system: motor and phonic tics of TS
Assay: Open-label pilot study of safety and efficacy in TS patients
Assay type: in vivo, human
Parameters: key to VTSS, Mean / TTS, Mean / GSS, Mean / MTSS, Median / TTS, Median / GSS, Median / MTSS change, Mean / VTSS change, Mean / TTS change, Mean / MTSS change, Median / VTSS change, Median / TTS change, Median: Yale Global Tic Severity Scale (YGTSS) scores
Source text: An open-label, pilot study was undertaken 1) to evaluate the safety and tolerability of treatment with deutetrabenazine, and 2) to evaluate the efficacy of deutetrabenazine to suppress the motor and phonic tics of TS. Study Design. Inclusion criteria (at screening, unless otherwise indicated) included: 12 to 18 years of age, inclusive; […] Throughout the study, an independent rater assessed tic severity with the Yale Global Tic Severity Scale (YGTSS) and tic impact with the TS-Clinical Global Impression (TS-CGI) scale. The independent rater will not have knowledge of the subject's clinical care, including medications or reports of adverse events (AEs). Dose regimen. Study drug was available in five dose strengths: 6, 9, 12, 15, and 18 mg, all of which were identical in size, shape, and color (white). […] Subjects then maintained that dose level for the duration of the treatment period. Subjects who were receiving CBIT (Comprehensive Behavioral Intervention for Tics) therapy were permitted to participate as long as therapy had been stable/ongoing for at least 4 weeks before Screening and was expected to be stable for the duration of the trial. Study drug was dosed as follows. All treatment doses were administered with meals. A daily dose of 6 mg was given once a day in the morning, and daily doses of 12 mg and higher were administered twice daily in divided doses, approximately 10 hours apart during the day. The starting dose was deutetrabenazine 6 mg in the AM. The dose of study drug was optionally adjusted weekly in increments of 6 mg/day during the titration period to identify a dose level that suppressed tics and was well tolerated. Dose reductions were in increments of 6 mg/day. In this study, the maximum total daily dose of deutetrabenazine at the Week 5 visit or later was 36 mg (18 mg twice daily [BID]). Titration period (6 weeks). […] Safety evaluations during titration included assessment of vital signs, monitoring for adverse events, and rating scales for depression and suicidal ideation and behavior. In-person study visits were scheduled at Weeks 2 and 4 after initiating therapy and telephone contacts were scheduled for Weeks 1, 3, 5, and 6 after initiating therapy in order to assess tic suppression and adverse events. The YGTSS and TS-CGI were assessed by an independent rater. The Investigator, in consultation with the subject and parent/guardian, determined when an adequate level of tic suppression had been achieved. The dose of deutetrabenazine was increased on a weekly basis until there was adequate suppression of tics, the subject experienced a protocol-defined “clinically significant” AE (defined as an AE that is related to study medication and either (1) moderate or severe in intensity or (2) meets the criteria for a serious adverse event [SAE]), or the maximal allowable dose was reached. Although dose adjustments could made up to and including the Week 5 phone call, if a stable dose was reached before then, the subject continued on that dose for the remainder of the titration period and throughout maintenance dosing. Once adequate suppression of tics had been achieved, the dose of study drug was not increased further. If a subject experienced a “clinically significant” AE that was attributed to study drug, the Investigator used his or her judgment to determine if a dose reduction or suspension was necessary. Dose adjustments were to be made based on all available information, including the subject and parent/guardian reports of AEs and tic suppression, the clinical assessment of safety and efficacy by the Investigator, as well as information from rating scales. At the end of the titration period, the subject's dose was established for the maintenance period. Maintenance period (2 weeks). Subjects continued to receive their maintenance dose over the next 2 weeks, although dose reductions for AEs were allowed. […]

## [2H]C([2H])([2H])Oc1cc2c(cc1OC([2H])([2H])[2H])C1CC(=O)C(CC(C)C)CN1CC2 (stereo not drawn) [deutetrabenazine, (RR, SS)-1,3,4,6,7,11b-hexahydro-9,10-di(methoxy-d3)-3-(2-methylpropyl)-2H-benzo[a]quinolizin-2-one]
Week 8, from a baseline of 4.7, 7 point scale, lower is better
  TS-CGI mean score: 3.7
Wk 2
  GSS, Mean: 59.4
  GSS, Median: 57
  MTSS, Mean: 15.9
  MTSS, Median: 16
  TTS, Mean: 29.4
  TTS, Median: 28
  VTSS, Mean: 13.5
  VTSS, Median: 14
Wk 4
  GSS, Mean: 51.1
  GSS, Median: 51
  MTSS, Mean: 14.2
  MTSS, Median: 14
  TTS, Mean: 26.3
  TTS, Median: 27
  VTSS, Mean: 12.1
  VTSS, Median: 12
Wk 8
  GSS, Mean: 45.1
  GSS, Median: 47
  Impairment, Mean: 22.9
  Impairment, Median: 20
  MTSS, Mean: 12.0
  MTSS, Median: 11
  TTS, Mean: 21.2
  TTS, Median: 23
  VTSS, Mean: 9.2
  VTSS, Median: 9
Wk 9 (washout)
  GSS, Mean: 51.7
  GSS, Median: 51
  MTSS, Mean: 13.9
  MTSS, Median: 14.5
  TTS, Mean: 25.6
  TTS, Median: 26
  VTSS, Mean: 11.7
  VTSS, Median: 10.5
After 8 weeks of treatment, 7-point scale, preliminary
  PGIC mean improvement: 1.8 points
After 8 weeks of treatment, preliminary
  patients much or very much improved (PGIC): about 75%
Baseline through week 8
  motor and vocal tics (FIG. 9): lowered (improved) both motor and vocal tics
Δ B-Wk 2
  GSS change, Mean: −7.7
  GSS change, Median: 0
  MTSS change, Mean: −1.9
  MTSS change, Median: 0
  TTS change, Mean: −2.9
  TTS change, Median: 0
  VTSS change, Mean: −1.0
  VTSS change, Median: 0
Δ B-Wk 9
  GSS change, Mean: −14.7
  GSS change, Median: −10.5
  MTSS change, Mean: −3.4
  MTSS change, Median: −3
  TTS change, Mean: −6.3
  TTS change, Median: −5
  VTSS change, Mean: −2.9
  VTSS change, Median: −2.5
